In PubChem BioAssay AID248 (DTP/NCI, 2004):
“And” between values parts separate entries of the source, which are not always exact repeats. Equal entries are not always repeated. Inconclusive results and toxic doses are left out. Cut-off read from the data, not from the text of the source: active = T/C of 150% or more; inactive = T/C below 125%.

Tested on: L1210 leukemia ip in BDF1 mice, survival T/C
Experiment: NCI In Vivo Anticancer Drug Screen. Data for tumor model L1210 Leukemia (intraperitoneal) in B6D2F1 (BDF1) mice
Details: endpoint: mean survival time, higher = longer survival
How it was run: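 Mice bearing the transplanted tumor received compound or vehicle. Survival of the treated group was divided by that of the vehicle-treated control group to give the ratio.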

[1] = dose: 50.0 mg/kg/injection, schedule: Q01DX001 (ip), vehicle: carboxymethylcellulose (CMC)
[2] = dose: 100.0 mg/kg/injection, schedule: Q01DX001 (ip), vehicle: carboxymethylcellulose (CMC)
[3] = dose: 100.0 mg/kg/injection, schedule: Q01DX009 (ip), vehicle: saline with Tween-80
[4] = dose: 100.0 mg/kg/injection, schedule: Q04DX003 (ip), vehicle: saline
[5] = dose: 200.0 mg/kg/injection, schedule: Q01DX001 (ip), vehicle: carboxymethylcellulose (CMC)
[6] = dose: 200.0 mg/kg/injection, schedule: Q01DX009 (ip), vehicle: saline with Tween-80
[7] = dose: 200.0 mg/kg/injection, schedule: Q04DX003 (ip), vehicle: saline
[8] = dose: 400.0 mg/kg/injection, schedule: Q01DX001 (ip), vehicle: carboxymethylcellulose (CMC)
[9] = dose: 400.0 mg/kg/injection, schedule: Q01DX009 (ip), vehicle: saline with Tween-80
[10] = dose: 400.0 mg/kg/injection, schedule: Q04DX003 (ip), vehicle: saline
[11] = dose: 100.0 mg/kg/injection, schedule: Q01DX001 (ip), vehicle: saline
[12] = dose: 200.0 mg/kg/injection, schedule: Q01DX001 (ip), vehicle: saline
[13] = dose: 100.0 mg/kg/injection, schedule: Q01DX001 (ip), vehicle: saline with Tween-80
[14] = dose: 200.0 mg/kg/injection, schedule: Q01DX001 (ip), vehicle: saline with Tween-80
[15] = dose: 100.0 mg/kg/injection, schedule: Q01DX009 (ip), vehicle: Klucel (hydroxypropylcellulose) (HPC)
[16] = dose: 100.0 mg/kg/injection, schedule: Q04DX002 (ip), vehicle: Klucel (hydroxypropylcellulose) (HPC)
[17] = dose: 200.0 mg/kg/injection, schedule: Q04DX002 (ip), vehicle: Klucel (hydroxypropylcellulose) (HPC)
[18] = dose: 400.0 mg/kg/injection, schedule: Q04DX002 (ip), vehicle: Klucel (hydroxypropylcellulose) (HPC)

Measured: T/C

CC(=O)Nc1ccc2c(c1)Cc1cc(NC=O)ccc1-2
inactive: [1] 101 % of control | [2] 95 % of control | [3] 102 % of control | [4] 97 % of control | [5] 101 % of control | [6] 95 % of control | [7] 93 % of control | [8] 101 % of control | [9] 98 % of control | [10] 95 % of control

CC1(C)C(=O)C(=O)C2CCCCC21 (centres undefined)
inactive: [3] 97 % of control | [6] 110 % of control | [9] 92 % of control

CCOC(=O)NO
inactive: dose: 27.0 mg/kg/injection, schedule: Q03HX024 (ip), vehicle: saline 95 % of control | dose: 40.0 mg/kg/injection, schedule: Q03HX024 (ip), vehicle: saline 97 % of control | dose: 50.0 mg/kg/injection, schedule: Q01DX Z (ip), vehicle: carboxymethylcellulose (CMC) 93 % of control | dose: 60.0 mg/kg/injection, schedule: Q03HX024 (ip), vehicle: saline 100 % of control | dose: 90.0 mg/kg/injection, schedule: Q03HX024 (ip), vehicle: saline 100 % of control | dose: 100.0 mg/kg/injection, schedule: Q01DX009 (ip), vehicle: saline 97 % of control and 98 % of control | dose: 100.0 mg/kg/injection, schedule: Q01DX Z (ip), vehicle: carboxymethylcellulose (CMC) 109 % of control | dose: 120.0 mg/kg/injection, schedule: Q01DX009 (ip), vehicle: saline 110 % of control | dose: 135.0 mg/kg/injection, schedule: Q03HX024 (ip), vehicle: saline 124 % of control | dose: 180.0 mg/kg/injection, schedule: Q01DX009 (ip), vehicle: saline 119 % of control | dose: 200.0 mg/kg/injection, schedule: Q01DX009 (ip), vehicle: saline 95 % of control and 100 % of control | dose: 400.0 mg/kg/injection, schedule: Q01DX009 (ip), vehicle: saline 102 % of control and 107 % of control | dose: 600.0 mg/kg/injection, schedule: Q01DX009 (ip), vehicle: saline 117 % of control

O=C1C2CCCCC2C(=O)N1O (centres undefined)
inactive: [11] 94 % of control | [4] 102 % of control | [12] 92 % of control | [7] 96 % of control | dose: 400.0 mg/kg/injection, schedule: Q01DX001 (ip), vehicle: saline 94 % of control | [10] 103 % of control

O=C1OC2C(O)C(CO)OC2n2c1cc(=O)[nH]c2=O (centres undefined)
inactive: dose: 100.0 mg/kg/injection, schedule: Q01DX005 (ip), vehicle: saline 111 % of control | dose: 200.0 mg/kg/injection, schedule: Q01DX005 (ip), vehicle: saline 104 % of control

O=C(O)/C=C/C(=O)Nc1ccc([N+](=O)[O-])cc1
inactive: [3] 101 % of control | dose: 100.0 mg/kg/injection, schedule: Q04DX003 (ip), vehicle: saline with Tween-80 107 % of control | [6] 102 % of control | dose: 200.0 mg/kg/injection, schedule: Q04DX003 (ip), vehicle: saline with Tween-80 101 % of control | [9] 95 % of control | dose: 400.0 mg/kg/injection, schedule: Q04DX003 (ip), vehicle: saline with Tween-80 107 % of control

CCCC(O)(CCC)CC(=O)OCC
inactive: dose: 200.0 mg/kg/injection, schedule: Q04DX003 (ip), vehicle: saline sonified 106 % of control | dose: 400.0 mg/kg/injection, schedule: Q04DX003 (ip), vehicle: saline sonified 90 % of control

O=C(C1C2C=CC(CC2)C1C(=O)N1CCOCC1)N1CCOCC1 (centres undefined)
inactive: [4] 100 % of control | [7] 96 % of control | [10] 96 % of control

CC(C)(C)NC(=O)C(Cl)Cl
inactive: [13] 88 % of control | [14] 98 % of control

CC(C)(C)C1CCC(N=C(N)CCl)CC1 (centres undefined)
inactive: dose: 6.25 mg/kg/injection, schedule: Q01DX009 (ip), vehicle: Klucel (hydroxypropylcellulose) (HPC) 98 % of control | dose: 12.5 mg/kg/injection, schedule: Q01DX009 (ip), vehicle: Klucel (hydroxypropylcellulose) (HPC) 102 % of control | dose: 12.5 mg/kg/injection, schedule: Q04DX002 (ip), vehicle: Klucel (hydroxypropylcellulose) (HPC) 103 % of control | dose: 25.0 mg/kg/injection, schedule: Q01DX009 (ip), vehicle: Klucel (hydroxypropylcellulose) (HPC) 98 % of control | dose: 25.0 mg/kg/injection, schedule: Q04DX002 (ip), vehicle: Klucel (hydroxypropylcellulose) (HPC) 100 % of control

O=c1[nH]cc(COCC(F)(F)C(F)F)c(=O)[nH]1
inactive: dose: 50.0 mg/kg/injection, schedule: Q01DX005 (ip), vehicle: other 101 % of control | dose: 100.0 mg/kg/injection, schedule: Q01DX005 (ip), vehicle: other 104 % of control | dose: 200.0 mg/kg/injection, schedule: Q01DX005 (ip), vehicle: other 95 % of control | dose: 400.0 mg/kg/injection, schedule: Q01DX005 (ip), vehicle: other 95 % of control

N#C/C(=C\c1ccccc1Cl)c1cccc(Cl)c1
inactive: dose: 25.0 mg/kg/injection, schedule: Q01DX009 (ip), vehicle: other 107 % of control | dose: 50.0 mg/kg/injection, schedule: Q01DX009 (ip), vehicle: other 96 % of control | dose: 100.0 mg/kg/injection, schedule: Q01DX009 (ip), vehicle: other 93 % of control and 90 % of control

CCCCCCCCN(C)/N=N/c1nc[nH]c1C(N)=O
inactive: [15] 113 % of control

Cc1ccc2c(=O)n(C)c(=O)n(C)c2n1
inactive: [16] 106 % of control | [17] 106 % of control | [18] 106 % of control

C/C([O-])=C(/c1nc(-c2ccc([N+](=O)[O-])o2)no1)[n+]1cc(C)ccc1C
inactive: [16] 95 % of control | [17] 91 % of control | [18] 87 % of control

O=[N+]([O-])/C=C/c1ccc(O)cc1
inactive: dose: 50.0 mg/kg/injection, schedule: Q01DX015 (ip), vehicle: saline 97 % of control | dose: 50.0 mg/kg/injection, schedule: Q04DX003 (ip), vehicle: acetone 96 % of control

Sc1c(Cl)c(Cl)c(Cl)c(Cl)c1Cl
inactive: dose: 100.0 mg/kg/injection, schedule: Q01DX001 (ip), vehicle: Klucel (hydroxypropylcellulose) (HPC) 106 % of control | [15] 93 % of control | dose: 200.0 mg/kg/injection, schedule: Q01DX001 (ip), vehicle: Klucel (hydroxypropylcellulose) (HPC) 106 % of control | dose: 200.0 mg/kg/injection, schedule: Q01DX009 (ip), vehicle: Klucel (hydroxypropylcellulose) (HPC) 100 % of control | dose: 400.0 mg/kg/injection, schedule: Q01DX001 (ip), vehicle: Klucel (hydroxypropylcellulose) (HPC) 104 % of control | dose: 400.0 mg/kg/injection, schedule: Q01DX009 (ip), vehicle: Klucel (hydroxypropylcellulose) (HPC) 93 % of control

CCCC(C)C(O)C(C)C (centres undefined)
inactive: [1] 93 % of control | [2] 95 % of control | [5] 95 % of control | [8] 93 % of control

COc1ccc(CCl)cc1C(=O)O
inactive: dose: 75.0 mg/kg/injection, schedule: Q01DX001 (ip), vehicle: saline 86 % of control | dose: 150.0 mg/kg/injection, schedule: Q01DX001 (ip), vehicle: saline 91 % of control

COC(=O)/C(C)=C/CC(C)C(=O)OC (centres undefined)
inactive: dose: 50.0 mg/kg/injection, schedule: Q01DX001 (ip), vehicle: saline 102 % of control | [11] 96 % of control | [12] 105 % of control

Clc1cccc(Cl)c1C[N+]12CN3CN(CN(C3)C1)C2
inactive: dose: 30.0 mg/kg/injection, schedule: Q01DX015 (ip), vehicle: saline 95 % of control | dose: 60.0 mg/kg/injection, schedule: Q01DX015 (ip), vehicle: saline 100 % of control | dose: 120.0 mg/kg/injection, schedule: Q01DX015 (ip), vehicle: saline 105 % of control

CCOC(=O)C1(c2ccccc2)CCCNC1=O (centres undefined)
inactive: dose: 100.0 mg/kg/injection, schedule: Q04DX002 (ip), vehicle: saline 107 % of control | dose: 200.0 mg/kg/injection, schedule: Q04DX002 (ip), vehicle: saline 89 % of control | dose: 400.0 mg/kg/injection, schedule: Q04DX002 (ip), vehicle: saline 100 % of control

O=C1C(Br)=C(Br)c2ccccc21
inactive: [1] 100 % of control | [2] 99 % of control

Nc1nc(SCc2ccccc2)c2nnn(C3OC(CO)C(O)C3O)c2n1 (centres undefined)
inactive: [13] 101 % of control | [14] 96 % of control | dose: 400.0 mg/kg/injection, schedule: Q01DX001 (ip), vehicle: saline with Tween-80 111 % of control
